Measurements published in patent EP2047849A1 (KTB Tumorforschungsgesellschaft mbH, priority 2007, dated 2009).
Residue numbers refer to the chain shown, from its start.

How the values were obtained:
Test in all cases: 33PanQinase Activity Assay (in vitro protein kinase activity assay)
Assay type in all cases: biochemical
Conditions in all cases: recombinant purified kinase, 1 µM [γ-33P]-ATP
CHK2 = target: T1, CHK2 (Homo sapiens, UniProt O96017)
T1 construct: made in house; host or cells: Sf9 insect cells (baculovirus)
T1 sequence (O96017 whole entry): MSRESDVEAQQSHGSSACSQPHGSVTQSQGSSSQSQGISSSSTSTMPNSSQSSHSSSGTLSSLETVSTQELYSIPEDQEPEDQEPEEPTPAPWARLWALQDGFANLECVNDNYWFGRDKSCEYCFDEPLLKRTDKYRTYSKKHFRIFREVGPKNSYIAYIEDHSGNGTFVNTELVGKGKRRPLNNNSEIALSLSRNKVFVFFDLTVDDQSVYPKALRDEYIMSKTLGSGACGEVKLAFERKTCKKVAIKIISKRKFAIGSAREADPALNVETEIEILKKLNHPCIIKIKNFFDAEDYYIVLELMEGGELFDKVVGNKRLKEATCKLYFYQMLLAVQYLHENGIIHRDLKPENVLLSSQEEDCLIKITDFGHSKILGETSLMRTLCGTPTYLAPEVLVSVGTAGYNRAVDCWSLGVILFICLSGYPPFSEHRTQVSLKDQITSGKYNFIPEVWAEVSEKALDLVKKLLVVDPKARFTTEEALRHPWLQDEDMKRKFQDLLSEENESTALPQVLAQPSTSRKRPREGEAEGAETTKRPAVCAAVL
Protocol: (§1) Inhibition of protein kinases by compounds was measured in proprietary protein kinase activity assay (^33PanQinase® Activity Assay) using recombinant purified protein kinases. All protein kinases were expressed in Sf9 insect cells as recombinant GST-fusion proteins or His-tagged proteins by means of the baculovirus expression system. All kinases were produced from human cDNAs. Kinases were purified by affinity chromatography using either GSH-agarose (Sigma) or Ni-NTH-agarose (Qiagen). The purity of the protein kinases was examined by SDS-PAGE/Coomassie staining. Activity was measured by determination of the incorporation of radio labelled phosphate into a substrate. The reaction cocktails for all enzymes contained 60 mM HEPES-NaOH, 10 mM Tris/HCl, pH 7.5, 20 mM NaCl, 3 mM MgCl2, 3 mM MnCl2, 3 µM Na-orthovanadate, 2 mM DTT, 4% glycerol, 1 µM [γ-^33P]-ATP (approx. 6 x 10^5 cpm per well), protein kinase , and substrate. Table 1: Protein kinases inhibited with high potency in vitro by compound PQ-012, PQ-013, PQ-014, PQ-016, PQ-041, PQ-042.

FAK = target: T2, FAK (Homo sapiens, UniProt Q05397)
T2 construct: made in house; host or cells: Sf9 insect cells (baculovirus)
T2 sequence (Q05397 whole entry): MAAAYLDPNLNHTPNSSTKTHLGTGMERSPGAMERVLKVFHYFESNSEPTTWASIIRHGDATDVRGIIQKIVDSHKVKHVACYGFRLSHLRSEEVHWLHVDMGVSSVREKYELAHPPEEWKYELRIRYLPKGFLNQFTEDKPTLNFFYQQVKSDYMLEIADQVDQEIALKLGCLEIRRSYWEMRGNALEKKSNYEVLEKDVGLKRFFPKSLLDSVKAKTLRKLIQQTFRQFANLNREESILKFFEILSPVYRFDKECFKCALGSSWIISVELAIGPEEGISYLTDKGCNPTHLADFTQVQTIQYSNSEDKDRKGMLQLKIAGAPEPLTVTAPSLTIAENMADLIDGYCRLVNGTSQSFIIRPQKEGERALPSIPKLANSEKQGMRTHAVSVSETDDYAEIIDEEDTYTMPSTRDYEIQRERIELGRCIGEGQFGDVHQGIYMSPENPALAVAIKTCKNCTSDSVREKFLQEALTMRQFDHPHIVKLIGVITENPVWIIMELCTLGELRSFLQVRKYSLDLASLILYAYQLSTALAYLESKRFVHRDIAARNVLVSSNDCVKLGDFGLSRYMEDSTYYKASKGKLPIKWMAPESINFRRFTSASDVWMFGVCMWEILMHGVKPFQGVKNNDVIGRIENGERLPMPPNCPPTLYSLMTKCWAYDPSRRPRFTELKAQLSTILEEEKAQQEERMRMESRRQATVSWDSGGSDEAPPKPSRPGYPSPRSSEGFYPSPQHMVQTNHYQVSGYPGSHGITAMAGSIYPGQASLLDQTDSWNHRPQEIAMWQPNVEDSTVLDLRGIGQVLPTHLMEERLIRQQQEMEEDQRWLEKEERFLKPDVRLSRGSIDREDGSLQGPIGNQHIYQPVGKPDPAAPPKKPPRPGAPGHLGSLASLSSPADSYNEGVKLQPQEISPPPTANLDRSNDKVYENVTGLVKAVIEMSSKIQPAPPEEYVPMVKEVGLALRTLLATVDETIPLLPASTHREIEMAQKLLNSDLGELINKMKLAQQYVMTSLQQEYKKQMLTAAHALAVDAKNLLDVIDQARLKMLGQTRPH
Protocol: as §1

FLT3 D835Y = target: T3, FLT3 D835Y (Homo sapiens, UniProt P36888, D835Y)
T3 construct: made in house; host or cells: Sf9 insect cells (baculovirus)
T3 sequence (P36888 27-993 D835Y): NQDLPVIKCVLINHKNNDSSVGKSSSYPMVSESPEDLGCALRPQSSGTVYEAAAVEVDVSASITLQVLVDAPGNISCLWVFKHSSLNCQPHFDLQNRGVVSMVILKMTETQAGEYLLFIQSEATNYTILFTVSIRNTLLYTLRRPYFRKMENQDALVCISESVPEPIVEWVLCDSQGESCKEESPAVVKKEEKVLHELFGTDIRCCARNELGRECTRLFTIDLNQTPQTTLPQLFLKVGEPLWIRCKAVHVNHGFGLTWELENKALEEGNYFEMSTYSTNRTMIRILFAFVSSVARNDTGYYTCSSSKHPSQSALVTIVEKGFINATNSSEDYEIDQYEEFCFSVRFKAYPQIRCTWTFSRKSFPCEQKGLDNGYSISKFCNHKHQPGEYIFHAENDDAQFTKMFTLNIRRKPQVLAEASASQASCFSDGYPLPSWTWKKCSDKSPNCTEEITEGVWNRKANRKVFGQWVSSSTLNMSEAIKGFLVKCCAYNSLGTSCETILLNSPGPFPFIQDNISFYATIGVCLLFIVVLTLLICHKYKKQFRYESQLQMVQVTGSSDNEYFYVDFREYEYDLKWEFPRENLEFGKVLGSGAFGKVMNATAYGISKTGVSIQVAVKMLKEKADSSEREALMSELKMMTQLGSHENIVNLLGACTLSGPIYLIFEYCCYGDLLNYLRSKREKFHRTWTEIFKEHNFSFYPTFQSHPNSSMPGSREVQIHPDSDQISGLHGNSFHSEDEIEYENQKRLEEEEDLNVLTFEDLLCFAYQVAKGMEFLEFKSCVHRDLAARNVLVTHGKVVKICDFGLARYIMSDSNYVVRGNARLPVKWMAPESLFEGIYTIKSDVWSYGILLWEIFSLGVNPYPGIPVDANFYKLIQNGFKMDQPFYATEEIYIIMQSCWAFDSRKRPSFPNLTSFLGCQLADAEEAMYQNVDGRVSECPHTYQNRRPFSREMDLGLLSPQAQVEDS
Protocol: as §1

FLT3 wt = target: T4, FLT3 wt (Homo sapiens, UniProt P36888)
T4 construct: made in house; host or cells: Sf9 insect cells (baculovirus)
T4 sequence (P36888 27-993): T3 sequence (P36888 27-993 D835Y) with Y809D
Protocol: as §1

PDGFR-alpha = target: T5, PDGFR-alpha (Homo sapiens, UniProt P16234)
T5 construct: made in house; host or cells: Sf9 insect cells (baculovirus)
T5 sequence (P16234 24-1089): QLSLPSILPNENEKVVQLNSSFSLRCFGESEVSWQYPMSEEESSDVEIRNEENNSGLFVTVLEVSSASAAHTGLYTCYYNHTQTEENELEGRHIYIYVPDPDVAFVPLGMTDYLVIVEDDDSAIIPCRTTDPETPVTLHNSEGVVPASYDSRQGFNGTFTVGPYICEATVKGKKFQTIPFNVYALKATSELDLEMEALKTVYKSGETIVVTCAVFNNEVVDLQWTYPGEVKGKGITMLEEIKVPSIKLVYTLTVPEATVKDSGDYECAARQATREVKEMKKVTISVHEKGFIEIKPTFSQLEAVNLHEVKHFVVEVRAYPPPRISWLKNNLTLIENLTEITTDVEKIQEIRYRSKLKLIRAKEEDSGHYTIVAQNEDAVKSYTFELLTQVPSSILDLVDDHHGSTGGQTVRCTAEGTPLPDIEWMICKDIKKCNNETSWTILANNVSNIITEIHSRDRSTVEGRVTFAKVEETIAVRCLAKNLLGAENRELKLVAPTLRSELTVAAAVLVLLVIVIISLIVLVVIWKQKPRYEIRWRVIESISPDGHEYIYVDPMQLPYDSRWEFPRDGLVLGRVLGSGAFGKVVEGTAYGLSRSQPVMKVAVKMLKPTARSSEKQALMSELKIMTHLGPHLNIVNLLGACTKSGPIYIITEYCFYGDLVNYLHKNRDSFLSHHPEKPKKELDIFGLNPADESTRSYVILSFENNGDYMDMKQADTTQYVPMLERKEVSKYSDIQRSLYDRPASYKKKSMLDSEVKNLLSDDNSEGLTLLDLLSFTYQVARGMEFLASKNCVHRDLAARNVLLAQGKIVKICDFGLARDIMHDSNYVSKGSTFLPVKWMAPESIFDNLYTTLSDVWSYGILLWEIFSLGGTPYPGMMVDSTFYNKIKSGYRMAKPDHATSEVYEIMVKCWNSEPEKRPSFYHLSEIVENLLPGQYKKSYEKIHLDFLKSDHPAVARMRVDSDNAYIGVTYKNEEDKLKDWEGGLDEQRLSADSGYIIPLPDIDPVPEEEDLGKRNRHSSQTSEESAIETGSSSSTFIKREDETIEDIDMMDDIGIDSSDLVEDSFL
Protocol: as §1

PDGFR-beta = target: T6, PDGFR-beta (Homo sapiens, UniProt P09619)
T6 construct: made in house; host or cells: Sf9 insect cells (baculovirus)
T6 sequence (P09619 33-1106): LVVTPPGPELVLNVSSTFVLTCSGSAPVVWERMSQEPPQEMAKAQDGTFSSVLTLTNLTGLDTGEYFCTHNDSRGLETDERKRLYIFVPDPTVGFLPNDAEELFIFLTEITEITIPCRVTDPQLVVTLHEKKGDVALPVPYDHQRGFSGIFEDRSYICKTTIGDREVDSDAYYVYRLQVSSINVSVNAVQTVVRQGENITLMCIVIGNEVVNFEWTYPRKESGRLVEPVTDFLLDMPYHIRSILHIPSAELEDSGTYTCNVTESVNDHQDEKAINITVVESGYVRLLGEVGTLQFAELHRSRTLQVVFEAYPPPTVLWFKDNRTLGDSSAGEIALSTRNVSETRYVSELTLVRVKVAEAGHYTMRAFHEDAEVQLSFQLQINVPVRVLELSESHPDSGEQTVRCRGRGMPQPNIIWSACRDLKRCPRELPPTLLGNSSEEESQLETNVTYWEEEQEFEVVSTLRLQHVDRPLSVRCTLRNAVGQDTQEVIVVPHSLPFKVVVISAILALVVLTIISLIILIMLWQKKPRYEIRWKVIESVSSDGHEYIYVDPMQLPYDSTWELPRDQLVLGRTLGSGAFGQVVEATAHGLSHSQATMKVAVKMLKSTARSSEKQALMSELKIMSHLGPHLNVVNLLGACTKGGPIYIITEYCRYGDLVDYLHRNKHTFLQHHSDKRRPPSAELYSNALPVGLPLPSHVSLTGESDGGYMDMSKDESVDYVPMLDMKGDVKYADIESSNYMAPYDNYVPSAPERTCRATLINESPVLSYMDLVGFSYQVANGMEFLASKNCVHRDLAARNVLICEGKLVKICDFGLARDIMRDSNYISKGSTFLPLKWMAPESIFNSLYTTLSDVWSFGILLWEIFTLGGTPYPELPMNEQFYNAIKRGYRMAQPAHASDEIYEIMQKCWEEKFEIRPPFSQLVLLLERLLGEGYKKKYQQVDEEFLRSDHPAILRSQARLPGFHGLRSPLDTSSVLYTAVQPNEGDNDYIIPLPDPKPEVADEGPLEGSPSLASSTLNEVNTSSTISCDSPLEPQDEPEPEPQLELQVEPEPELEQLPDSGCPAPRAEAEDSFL
Protocol: as §1

Aurora B = target: T7, Aurora B (Homo sapiens, UniProt Q96GD4)
T7 construct: made in house; host or cells: Sf9 insect cells (baculovirus)
T7 sequence (Q96GD4 whole entry): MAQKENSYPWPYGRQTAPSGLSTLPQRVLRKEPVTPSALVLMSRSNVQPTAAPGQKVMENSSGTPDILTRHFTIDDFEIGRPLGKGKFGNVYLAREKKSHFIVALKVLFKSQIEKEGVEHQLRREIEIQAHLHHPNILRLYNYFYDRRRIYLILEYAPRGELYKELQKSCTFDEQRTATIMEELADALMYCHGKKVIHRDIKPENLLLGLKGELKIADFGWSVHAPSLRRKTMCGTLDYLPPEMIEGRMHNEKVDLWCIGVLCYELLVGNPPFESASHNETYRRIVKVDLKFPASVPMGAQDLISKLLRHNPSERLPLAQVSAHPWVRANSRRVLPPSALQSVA
Protocol: as §1

MAP4K4 = target: T8, MAP4K4 (Homo sapiens, UniProt O95819)
T8 construct: made in house; host or cells: Sf9 insect cells (baculovirus)
Protocol: as §1

PLK4 = target: T9, PLK4 (Homo sapiens, UniProt O00444)
T9 construct: made in house; host or cells: Sf9 insect cells (baculovirus)
T9 sequence (O00444 1-970): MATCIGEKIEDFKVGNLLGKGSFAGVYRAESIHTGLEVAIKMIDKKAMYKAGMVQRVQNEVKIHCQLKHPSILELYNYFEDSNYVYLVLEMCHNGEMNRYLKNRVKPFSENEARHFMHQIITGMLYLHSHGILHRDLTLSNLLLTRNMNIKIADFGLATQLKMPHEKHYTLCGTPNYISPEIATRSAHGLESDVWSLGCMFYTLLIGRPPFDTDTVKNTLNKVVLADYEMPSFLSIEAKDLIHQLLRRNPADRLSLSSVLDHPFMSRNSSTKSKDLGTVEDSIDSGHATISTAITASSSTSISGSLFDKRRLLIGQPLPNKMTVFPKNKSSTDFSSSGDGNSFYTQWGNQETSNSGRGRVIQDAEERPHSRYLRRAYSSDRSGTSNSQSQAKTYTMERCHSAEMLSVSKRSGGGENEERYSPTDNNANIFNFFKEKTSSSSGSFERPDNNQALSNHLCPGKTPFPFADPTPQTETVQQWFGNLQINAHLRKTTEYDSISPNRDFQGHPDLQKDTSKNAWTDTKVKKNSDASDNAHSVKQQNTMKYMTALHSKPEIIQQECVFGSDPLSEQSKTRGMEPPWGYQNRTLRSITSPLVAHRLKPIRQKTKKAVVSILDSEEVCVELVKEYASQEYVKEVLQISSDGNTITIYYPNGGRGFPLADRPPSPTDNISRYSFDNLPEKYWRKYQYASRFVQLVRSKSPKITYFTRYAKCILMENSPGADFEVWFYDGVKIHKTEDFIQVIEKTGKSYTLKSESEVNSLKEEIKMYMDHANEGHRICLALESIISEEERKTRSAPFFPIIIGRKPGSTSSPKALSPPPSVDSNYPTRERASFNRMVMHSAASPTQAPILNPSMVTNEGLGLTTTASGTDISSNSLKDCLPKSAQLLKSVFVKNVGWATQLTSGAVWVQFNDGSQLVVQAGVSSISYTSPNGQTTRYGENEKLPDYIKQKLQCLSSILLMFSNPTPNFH
Protocol: as §1

PRKG2 = target: T10, PRKG2 (Homo sapiens, UniProt Q13237)
T10 construct: made in house; host or cells: Sf9 insect cells (baculovirus)
T10 sequence (Q13237 1-762): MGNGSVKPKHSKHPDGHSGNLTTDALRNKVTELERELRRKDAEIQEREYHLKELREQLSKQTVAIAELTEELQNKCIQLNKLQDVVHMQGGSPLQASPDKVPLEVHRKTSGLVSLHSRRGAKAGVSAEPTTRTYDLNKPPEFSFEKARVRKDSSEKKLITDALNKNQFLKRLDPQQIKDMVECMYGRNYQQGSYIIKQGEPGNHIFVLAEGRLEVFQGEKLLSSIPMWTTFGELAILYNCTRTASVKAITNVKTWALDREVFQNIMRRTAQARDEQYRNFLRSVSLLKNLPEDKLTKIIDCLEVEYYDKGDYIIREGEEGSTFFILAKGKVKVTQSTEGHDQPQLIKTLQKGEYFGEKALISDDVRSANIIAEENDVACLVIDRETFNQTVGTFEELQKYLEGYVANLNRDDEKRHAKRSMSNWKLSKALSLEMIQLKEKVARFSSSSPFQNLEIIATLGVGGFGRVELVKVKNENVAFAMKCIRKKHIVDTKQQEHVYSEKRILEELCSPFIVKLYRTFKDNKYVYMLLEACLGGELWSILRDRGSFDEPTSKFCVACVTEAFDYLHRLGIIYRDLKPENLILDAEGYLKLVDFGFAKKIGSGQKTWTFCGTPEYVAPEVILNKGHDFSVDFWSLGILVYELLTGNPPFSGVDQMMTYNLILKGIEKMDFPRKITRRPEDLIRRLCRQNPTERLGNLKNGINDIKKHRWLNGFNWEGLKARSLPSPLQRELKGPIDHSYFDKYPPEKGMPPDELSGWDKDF
Protocol: as §1

RSK1 = target: T11, RSK1 (Homo sapiens, UniProt Q15418)
T11 construct: made in house; host or cells: Sf9 insect cells (baculovirus)
Protocol: as §1

RSK2 = target: T12, RSK2 (Homo sapiens, UniProt P51812)
T12 construct: made in house; host or cells: Sf9 insect cells (baculovirus)
Protocol: as §1

RSK3 = target: T13, RSK3 (Homo sapiens, UniProt Q15349)
T13 construct: made in house; host or cells: Sf9 insect cells (baculovirus)
Protocol: as §1

RSK4 = target: T14, RSK4 (Homo sapiens, UniProt Q9UK32)
T14 construct: made in house; host or cells: Sf9 insect cells (baculovirus)
T14 sequence (Q9UK32 whole entry): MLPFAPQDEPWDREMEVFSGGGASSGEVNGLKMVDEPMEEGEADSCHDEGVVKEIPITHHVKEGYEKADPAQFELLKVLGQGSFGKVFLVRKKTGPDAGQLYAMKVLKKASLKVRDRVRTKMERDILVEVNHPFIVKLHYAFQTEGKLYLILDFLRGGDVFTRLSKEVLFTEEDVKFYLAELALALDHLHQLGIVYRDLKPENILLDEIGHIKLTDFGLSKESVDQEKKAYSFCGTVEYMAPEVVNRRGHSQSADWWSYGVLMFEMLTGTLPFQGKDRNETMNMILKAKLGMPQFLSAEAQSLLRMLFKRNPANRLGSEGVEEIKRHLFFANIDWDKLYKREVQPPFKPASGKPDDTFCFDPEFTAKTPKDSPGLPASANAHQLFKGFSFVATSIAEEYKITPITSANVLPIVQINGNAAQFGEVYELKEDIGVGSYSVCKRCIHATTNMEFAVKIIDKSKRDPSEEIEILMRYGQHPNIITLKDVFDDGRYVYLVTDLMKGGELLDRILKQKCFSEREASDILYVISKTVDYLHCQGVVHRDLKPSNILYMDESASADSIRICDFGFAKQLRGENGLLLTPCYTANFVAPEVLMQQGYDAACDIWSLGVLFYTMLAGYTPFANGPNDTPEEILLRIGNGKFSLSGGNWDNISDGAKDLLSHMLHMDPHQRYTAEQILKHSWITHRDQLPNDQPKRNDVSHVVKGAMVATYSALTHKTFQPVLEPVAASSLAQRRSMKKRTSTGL
Protocol: as §1

Row | IC50 (Aurora B) | IC50 (MAP4K4) | IC50 (PLK4) | IC50 (PRKG2) | IC50 (RSK1) | IC50 (RSK2) | IC50 (RSK3) | IC50 (RSK4) | Compound | IC50 (CHK2) | IC50 (FAK) | IC50 (FLT3 D835Y) | IC50 (FLT3 wt) | IC50 (PDGFR-alpha) | IC50 (PDGFR-beta)
1 | – | – | – | – | – | – | – | – | NC(=O)CCn1c2ccccc2c2c3c(c4c5ccccc5[nH]c4c21)C(=O)NC3=O [PQ-041, 12-(2-Carbamidoethyl)-6,7,12,13-tetrahydro-5,1 dioxo-5H-indolo[2,3-a] pyrrolo [3,4-c]-carbazole] | 740 nM | 2400 nM | 3.9 nM | 5.6 nM | 130 nM | 150 nM
2 | – | – | – | – | – | – | – | – | COc1ccc2c(c1)c1c3c(c4c5ccccc5n(C)c4c1n2CCC#N)C(=O)NC3=O [PQ-014, 13-(2-Cyanoethyl)-6,7,12,13-tetrahydro-3-methoxy-12-methyl-5,7 dioxo-5H-indolo[2,3-a] pyrrolo [3,4-c]-carbazole] | 2100 nM | 1200 nM | 3.5 nM | 4.6 nM | 110 nM | 130 nM
3 | – | – | – | – | – | – | – | – | CN(C)CC(O)Cn1c2ccc(O)cc2c2c3c(c4c5cc(O)ccc5n(C)c4c21)C(=O)NC3=O (racemic) | 22000 nM | 1000 nM | 64 nM | 110 nM | 2000 nM | 700 nM
4 | – | – | – | – | – | – | – | – | Cn1c2ccccc2c2c3c(c4c5ccccc5[nH]c4c21)C(=O)NC3=O [PQ-042, 6,7,12,13-Tetrahydro-12-methyl-5,7 dioxo-5H-indolo [2,3-a] pyrrolo [3,4-c]-carbazole] | > 10000 nM | > 10000 nM | 68 nM | 380 nM | > 10000 nM | > 10000 nM
5 | 210 nM | 35 nM | 180 nM | 67 nM | 23 nM | 430 nM | 170 nM | 78 nM | COc1ccc2[nH]c3c(c4c(c5c6cc(OC)ccc6n(C)c35)C(=O)NC4=O)c2c1 [PQ-013, 6,7,12,13-Tetrahydro-3,9-dimethoxy-12-methyl-5,7 dioxo-5H-indolo [2,3-a] pyrrolo [3,4-c]-carbazole] | 40 nM | 36000 nM | < 3 nM | 4.6 nM | 10 nM | 19 nM
6 | – | – | – | – | – | – | – | – | CN(C)CCCn1c2ccc(O)cc2c2c3c(c4c5cc(O)ccc5n(C)c4c21)C(=O)NC3=O [PQ-012, 12-(3-Dimethylaminopropyl)-6,7,12,13-tetrahydro-3,9-dihydroxy-12-methyl-5,7 dioxo-5H-indolo[2,3-a] pyrrolo [3,4-c]-carbazole] | 23 nM | 14 nM | < 3 nM | < 3 nM | < 3 nM | < 3 nM
